Laboratory results reported in patent publication US20250319067A1, “Improved Pharmacokinetics of Tryptamine Prodrugs” (Reunion Neuroscience, Inc., priority 2023, published 2025).
“Also recorded” adds a separate entry of the source. Where a name gives a salt, the structure may show the parent alone.

Assays:
[1] = Metabolite profiling in monkey plasma after SC RE104; format: in vivo, cynomolgus monkey; settings: pooled plasma 0 to 12 hours post dose, SC 0.5 mg/kg RE104
Text: Blood samples were centrifuged to obtain plasma.

healthy females [2] = assay: Phase 1 FIH single ascending dose study: safety and tolerability (AEs); format: in vivo, human
Method: (§1) The study was a double-blind, randomized, placebo-controlled Phase 1 single ascending dose study in up to 6 cohorts in healthy females. Eligibility was assessed during a screening period of up to 28 days prior to enrollment. For the treatment period, subjects were admitted to the clinical research unit (CRU) one day prior to the dosing (Day −1). On Day 1, all subjects will received the assigned SC dose of RE104 HCl or placebo in a fed state (after domiciling overnight and consuming a planned evening meal on Day −1 and morning meal on Day 1 while at the CRU). Subjects were allowed to select snacks from a planned menu from 4 hours following dosing. Subjects were discharged from the clinic on Day 2 (−24 hours post-dose) after all required study procedures were completed and if deemed medically fit. Subjects returned to the clinic on Day 10 (±2 days) for a follow up visit.
Six (6) cohorts were enrolled in the study. Six (6) single doses were tested in 6 cohorts (Cohort 1 to Cohort 6) of 8 healthy female subjects (6 active and 2 placebo), as indicated in FIG. 1 and Table 3.
The starting dose was 5.5 mg RE104 HCl. Sentinels were used in all cohorts. Within each cohort, 2 subjects were treated first: 1 subject received RE104 HCl and 1 subject received placebo.
The study was monitored by a safety review committee (SRC). […] Safety, tolerability, and available PK data were assessed by the SRC between each cohort before ascending to the next dose level (Table 3). After each cohort dosing was complete, the SRC met to discuss dose escalation. Escalation to the next higher dose level occurred only after evaluation of the safety and tolerability data up to and including at least 24 hours post-dose of all evaluable subjects in the previous dose cohort. Available PK results were requested for determination of dose escalation, as deemed necessary.
Dosing took place at a time point agreed to with the investigational pharmacy and acceptable to the investigator. RE104 HCl or placebo were administered as a SC injection in the upper arm. Subjects received RE104 HCl or placebo in a fed state. The time of administration of RE104 HCl or placebo was be recorded in the eCRF. The regimen used is outlined in Table 3.
Within each cohort, 2 sentinel subjects were treated first: 1 subject received RE104 HCl and 1 subject received placebo. […] All drug administration was be done under direct medical supervision. Study subjects were overseen during the potentially psychoactive study drug period by professionals trained to monitor psychedelic experiences.

healthy females [3] = assay: Phase 1 FIH study: modified Drug Effect Questionnaire (DEQ-High); format: in vivo, human
Method: as §1
The Drug Effect Questionnaire (DEQ) Feel/High is widely used in studies of acute subjective response to a variety of substances, to assess two key aspects of subjective experience: (1) the strength of substance effects and (2) desirability of substance effects (Morean et al., 2013). The modified DEQ assesses the extent to which subjects (1) feel any substance effect(s) and (2) feel high. This version of the DEQ includes the following items: “Do you feel a drug effect right now?” (FEEL); “Are you high right now?” (HIGH). FIG. 2 sets out the modified DEQ that was used.
The modified DEQ was used as an 11-point numeric rating scale (0-10) administered by a qualified staff member. The subjects were asked to verbally respond to indicate how strongly they feel the drug effect and how high they feel on the scale of 0-10 after being administered the study drug (Kollltveit et al., 2020).

[4] = GLP 14-day extended single SC dose toxicity study in rats; settings: female, Sprague Dawley, rat, in vivo, subcutaneous
Method: (§2) In a GLP 14-day extended single SC dose toxicity study in rats, doses of 0 (PBS), 10, 25 and 75 mg/kg were evaluated. Animals were necropsied on Study Day 2 and Day 14 (also referred to as Recovery Day 13) post-dosing.
(§3) A non-GLP dose range study was performed in the dog in order to determine an MTD. Single SC doses of 7.5, 15 and 20 mg/kg were evaluated.

rats [5] = assay: as above
Method: as §2, §3

[6] = molecular target: human ether-a-go-go-related gene (hERG) (Homo sapiens, UniProt Q12809); assay: hERG tail current assay; format: cell-based; settings: 30 μM as zwitterion (highest concentration tested)
Sequence of human ether-a-go-go-related gene (hERG) (Q12809 whole entry): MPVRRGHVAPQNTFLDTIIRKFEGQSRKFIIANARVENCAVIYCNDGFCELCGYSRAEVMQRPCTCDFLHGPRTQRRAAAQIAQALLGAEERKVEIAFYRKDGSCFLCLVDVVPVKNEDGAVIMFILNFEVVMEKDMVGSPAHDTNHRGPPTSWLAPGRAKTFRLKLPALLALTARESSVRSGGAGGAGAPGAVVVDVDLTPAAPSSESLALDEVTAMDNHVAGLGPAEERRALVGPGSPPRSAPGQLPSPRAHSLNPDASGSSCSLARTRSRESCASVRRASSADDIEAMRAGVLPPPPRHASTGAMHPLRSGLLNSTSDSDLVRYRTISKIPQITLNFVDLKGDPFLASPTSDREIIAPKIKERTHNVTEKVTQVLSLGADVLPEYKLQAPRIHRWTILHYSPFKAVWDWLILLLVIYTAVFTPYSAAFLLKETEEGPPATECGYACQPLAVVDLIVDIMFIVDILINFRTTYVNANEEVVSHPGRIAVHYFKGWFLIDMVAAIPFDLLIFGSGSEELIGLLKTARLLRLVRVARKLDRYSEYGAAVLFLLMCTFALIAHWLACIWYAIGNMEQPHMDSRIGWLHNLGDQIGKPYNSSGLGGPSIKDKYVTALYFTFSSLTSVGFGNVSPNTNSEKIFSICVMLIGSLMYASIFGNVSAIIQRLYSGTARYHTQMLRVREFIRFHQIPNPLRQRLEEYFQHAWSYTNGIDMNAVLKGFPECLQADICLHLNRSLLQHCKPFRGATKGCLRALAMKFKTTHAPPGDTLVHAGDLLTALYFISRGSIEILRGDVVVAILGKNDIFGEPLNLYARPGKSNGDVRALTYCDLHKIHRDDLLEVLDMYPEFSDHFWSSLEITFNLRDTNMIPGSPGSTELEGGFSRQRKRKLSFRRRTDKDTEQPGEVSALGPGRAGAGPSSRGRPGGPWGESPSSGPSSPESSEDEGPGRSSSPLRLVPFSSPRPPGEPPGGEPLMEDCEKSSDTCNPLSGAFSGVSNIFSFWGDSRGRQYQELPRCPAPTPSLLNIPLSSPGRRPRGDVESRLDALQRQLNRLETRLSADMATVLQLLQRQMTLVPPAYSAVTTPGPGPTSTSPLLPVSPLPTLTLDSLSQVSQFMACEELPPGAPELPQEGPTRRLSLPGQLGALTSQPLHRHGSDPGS

rats [7] = assay: Behavioral safety pharmacology study in rats; format: in vivo; settings: rat
Method: In a behavioral study in rats, single SC administration of 10, 25 or 50 mg/kg RE104 HCl induced significant acute, and reversible neuro-pharmacological effects; however, all observations were attributed to exaggerated pharmacologic effects at the serotonin receptor of the test article (i.e., SS). The incidence and duration of observations were dose related.

healthy females [8] = assay: Phase 1 FIH study: Mystical Experience Questionnaire (MEQ30); format: in vivo, human; settings: 33 mg
Method: as §1
The Mystical Experience Questionnaire (MEQ30) is a validated questionnaire that assesses individual episodes of a mystical experience produced by classic hallucinogens (Barrett et al. 2015). The validated MEQ30 uses thirty questions across 4 areas of experience: (i) Mystical (including items concerning internal unity, external unity, noetic quality, and sacredness); (ii) Positive mood; (iii) Transcendence of time and space; and (iv) Ineffability. The subjects will be asked to rate each item of the MEQ30 on a 6-point scale. FIG. 3 sets out the revised MEQ30 that was used.

male rats = assay: Respiratory function study in male rats; format: in vivo, rat; settings: single SC 10, 25, and 50 mg/kg
Method: In a respiratory function study in male rats, at single SC doses of 10, 25, and 50 mg/kg, RE104 HCl produced increases in respiration rate (8-28%) and decreases in tidal volume (28-30%) and minute volume (24-31%). All these changes were transient and returned to pre-dose values by the 6-hour post-dose reading. Based upon the small magnitude and the transient nature of these changes, the changes were not considered adverse.

[9] = system: conscious telemetered beagle dogs; assay: Cardiovascular study in conscious telemetered beagle dogs; format: in vivo; settings: dog
humans = settings: humans; cited from earlier work
[10] = rat, oral Gymnopilus spectabilis (Chen et al.); cited from earlier work
[11] = in vivo; cited from earlier work
[12] = Prodrug cleavage in human plasma; format: in vitro ADME; settings: human plasma (data not shown)
Method: Mean values from 3 replicate assays are reported. See the Supplemental Methods for additional details.
Triplicate aliquots (50 μL) of each spiked plasma solution were immediately added to 200 μL of ice-cold methanol/acetonitrile solution (50:50 v/v) containing the internal standards to generate time zero samples. Spiked plasma solutions were incubated at 37° C. in an orbital shaker set to 75 rpm, and 50-μL samples were taken in triplicate after 30 minutes and 1, 2, and 4 hours of incubation. Each sample was immediately added to 200 μL ofice-cold methanol/acetonitrile solution containing the internal standard(s) to terminate the reaction. Samples were mixed by vortex and then stored at −80° C. until analysis.
Calibration standards were prepared in plasma for each species and analyzed in batches by LC-MS/MS. Sample batches consisted of 3 replicates of a system suitability standard (containing the analyte and internal standard), the appropriate calibration standards in ascending order including a blank sample without internal standard, a zero sample (with internal standard), and at least 6 nonzero standards and the assay samples, followed by the 3 replicates of the system suitability sample.

male Wistar rats = assay: Forced swim test (FST) in rats; format: in vivo, rat

**Q.** With `CC(C)N(CCc1c[nH]c2cccc(OC3OC(C(=O)O)C(O)C(O)C3O)c12)C(C)C` (stereo not drawn) [glucuronidation of 4-OH-DiPT] as the molecule, how does the “share of the total peak area” value [1] read?
**A.** 24.5%

**Q.** For `CC(C)N(CCc1c[nH]c2cccc(OC(=O)CCCC(=O)O)c12)C(C)C` [RE104 HCl, 4-Glutaroyl-3-(2-diisopropylaminoethyl)-1H-indole hydrochloride], which “injection site adverse reactions” value (healthy females [2]; SC injection in the upper arm) is on record?
**A.** No injection site adverse reactions were reported

**Q.** And the “serious AEs” value (healthy females [2]; doses up to and including 44 mg)?
**A.** no serious AEs

**Q.** And the “blood pressure, vital sign, clinical laboratory, electrocardiogram findings” value (healthy females [2]; doses up to and including 44 mg, hydrochloride)?
**A.** no evident blood pressure effects; also recorded: no clinically significant vital sign, clinical laboratory, or electrocardiogram findings

**Q.** And the “reduction of psychoactive experience relative to historical evidence with psilocybin” value (healthy females [3]; 33 mg)?
**A.** 50%

**Q.** And the “time of peak activity” value (healthy females [3]; 33 mg SC)?
**A.** approx 1 h

**Q.** What about the NOAEL at 14 days [4] of the same molecule?
**A.** 10 mg/kg

**Q.** And the “Fold Lower than Scaled NOAEL Dose” value (rats [5]; Cohort 1, 5.5 mg RE104 HCl)?
**A.** 19

**Q.** What about the “Fold Lower than Scaled NOAEL Dose” value (rats [5]; Cohort 2, 11 mg RE104 HCl) of the same molecule?
**A.** 9.7

**Q.** What about the “Fold Lower than Scaled NOAEL Dose” value (rats [5]; Cohort 3, 22 mg RE104 HCl) of the same molecule?
**A.** 4.9

**Q.** And the “Fold Lower than Scaled NOAEL Dose” value (rats [5]; Cohort 4, 33 mg RE104 HCl)?
**A.** 3.2

**Q.** What about the MRSD (rats [5]; from rat NOAEL, 10-fold safety margin) of the same molecule?
**A.** 9.7 mg

**Q.** What about the “decrease in hERG current amplitude” value [6] of the same molecule?
**A.** 5.9 ± 1.6%

**Q.** And the “time of neuro-pharmacological effects” value (rats [7]; single SC 10 mg/kg)?
**A.** effects were observed at 30 minutes (min) to 1 hour (h)

**Q.** And the “time of neuro-pharmacological effects” value (rats [7]; single SC 25 mg/kg)?
**A.** effects were observed to 6 h

**Q.** What about the “time of neuro-pharmacological effects” value (rats [7]; single SC 50 mg/kg) of the same molecule?
**A.** effects were noted through 6 h post-dose but were resolved by 24 h

**Q.** And the “MEQ total score and domain scores” value (healthy females [8])?
**A.** ≥ 60%

**Q.** What about the “decreases in minute volume” value (male rats) of the same molecule?
**A.** 24-31%

**Q.** And the “decreases in tidal volume” value (male rats)?
**A.** 28-30%

**Q.** What about the “increases in respiration rate” value (male rats) of the same molecule?
**A.** 8-28%

**Q.** What about the “effects on cardiac rhythm, ECG parameters or body temperature” value ([9]; SC 1, 3 or 8 mg/kg) of the same molecule?
**A.** No significant biologically relevant effects

**Q.** And the “effect on heart rate and blood pressure” value ([9]; SC 3 and 8 mg/kg)?
**A.** Transient increases in heart rate and blood pressure

**Q.** And the “effect on heart rate and blood pressure” value ([9]; single SC 1 mg/kg)?
**A.** small transient increase in heart rate but had no effect on blood pressure

**Q.** With `CN(C)CCc1c[nH]c2cccc(OP(=O)(O)O)c12` [psilocybin] as the molecule, how does the “duration of psychedelic state / effects” value (humans) read?
**A.** 6 to 8 h

**Q.** Which distribution half-life [10] does the source give for `CN(C)CCc1c[nH]c2cccc(O)c12` [psilocin] here?
**A.** 1.95 h

**Q.** What about the elimination half-life [10] of the same molecule?
**A.** 2.47 h

**Q.** And the “oral bioavailability in man” value [11]?
**A.** approximately 53%

**Q.** For `CN(C)CCc1c[nH]c2cccc(OC(=O)CCCC(=O)O)c12.Cl` [RE109, psilocin-4-glutarate, reference compound], which cleavage to psilocin [12] is on record?
**A.** rapid cleavage to psilocin

**Q.** And the “climbing as share of escape behaviors” value (male Wistar rats; rat FST, day 28)?
**A.** 26%

**Q.** And the “swimming as share of escape behaviors” value (male Wistar rats; rat FST, day 28)?
**A.** 74%

**Q.** And the “mean swimming time relative to vehicle” value (male Wistar rats; rat FST, single 1 mg/kg dose)?
**A.** significantly increased

**Q.** And the “mean immobility time vs vehicle” value (male Wistar rats; rat FST, single 1 mg/kg dose, day 14 and 28)?
**A.** significant decrease

**Q.** And the “duration of distinctive serotonergic behaviors” value (male Wistar rats; rat, dosing day, 1 mg/kg)?
**A.** approximately 3 hours
